Results as given in patent US7179926B2, “Aryloxyalkylamine NK-1/SSRI inhibitors” (Bristol-Myers Squibb Company, priority 2004, dated 2007).

Tests used:
[1] = molecular target: T1, neurokinin-1 (NK-1) receptor (Homo sapiens, UniProt P25103); experiment: NK-1 Binding assay ([125I] Substance P competition, U373 cell membranes); conditions: Bolton Hunter labeled [125I] Substance P, 30 min at 20° C.
T1 construct: endogenously expresses the neurokinin-1 (NK-1) receptor; endogenous in cells; host or cells: U373 human glioblastoma-astrocytoma cells (membranes)
T1 sequence (P25103 whole entry): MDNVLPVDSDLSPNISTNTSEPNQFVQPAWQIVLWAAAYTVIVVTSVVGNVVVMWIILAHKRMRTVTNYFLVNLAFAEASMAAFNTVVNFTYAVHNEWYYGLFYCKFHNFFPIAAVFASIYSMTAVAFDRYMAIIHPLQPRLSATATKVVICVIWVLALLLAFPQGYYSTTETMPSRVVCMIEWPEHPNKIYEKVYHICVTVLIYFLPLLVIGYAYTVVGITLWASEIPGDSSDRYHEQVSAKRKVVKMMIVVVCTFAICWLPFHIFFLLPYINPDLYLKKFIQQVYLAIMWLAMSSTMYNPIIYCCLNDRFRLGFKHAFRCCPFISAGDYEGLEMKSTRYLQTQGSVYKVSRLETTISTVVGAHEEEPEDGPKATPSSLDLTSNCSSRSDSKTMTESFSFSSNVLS
Experimental: NK-1 Binding assay. U373 cells, a human glioblastoma-astrocytoma cell line that endogenously expresses the neurokinin-1 (NK-1) receptor, were grown in a monolayer culture at 37° C. in 5% CO2 and fed with Minimum Essential Medium (MEM) supplemented with 10% fetal bovine serum. Membranes were prepared as follows: Cells were washed twice with ice-cold phosphate-buffered saline (pH 7.4) and then incubated for 5–10 minutes with ice-cold 10 mM Tris buffer (pH 7.4) containing 5 mM EDTA. Cells were removed from plates, homogenized, and centrifuged at 32,000×g for 20 minutes. The resulting supernatant was discarded, and the pellet resuspended by homogenization in 50 mM Tris buffer (pH 7.4) containing 1 mM EDTA and centrifuged at 32,000×g for 20 minutes. The resulting supernatant was discarded, and the pellet resuspended by homogenization in NK-1 binding assay buffer (50 mM Tris-HCL (pH 7.4), 3 mM MnCl2, 200 μg/ml BSA, 5 μg/ml chymostatin, 40 μg/ml bacitracin and 4 μg/ml leupeptin).
On the day of an experiment the membrane preparation was thawed, homogenized and diluted with NK-1 binding assay buffer to the appropriate concentration. Competition binding assays were performed in 96 well plate format by incubating membranes (5–10 μg/well) with Bolton Hunter labeled [^125I] Substance P, at a concentration of […], and concentrations of drugs ranging from 10000 to 0.01 nM. Samples were incubated for 30 min at 20° C. then filtered through GF/B glass fiber filters (pretreated with 1% polyethyleneimine and 0.3% Triton X-100) using a Brandel cell harvester. The filters were then washed with 10 ml ice cold 50 mM Tris-HCL (pH 7.4) containing 3 mM MgCl2. Non-specific was defined in the presence of 2 μM L-733,060 (a non-peptide NK-1 antagonist). The amount of radioligand bound in the presence and absence of competitor was analyzed by plotting (−)log drug concentration versus the amount of radioligand specifically bound. The midpoint of the displacement curve (IC50, nM), signifies the potency. Ki values can be calculated using the method of Cheng and Prusoff (Cheng and Prusoff, Biochemical Pharmacology, Vol 22, pp. 3099–3108, Pergamon Press (1973)).

[2] = molecular target: T2, human serotonin transporters (Homo sapiens, UniProt P31645); experiment: Serotonin transporter binding assay ([3H]-citalopram competition, HEK-hSERT cell membranes); conditions: 1 nM [3H]-citalopram, 1 hr at 25° C., read-out: SERT IC50
T2 construct: expressed in transfected cells
T2 sequence (P31645 whole entry): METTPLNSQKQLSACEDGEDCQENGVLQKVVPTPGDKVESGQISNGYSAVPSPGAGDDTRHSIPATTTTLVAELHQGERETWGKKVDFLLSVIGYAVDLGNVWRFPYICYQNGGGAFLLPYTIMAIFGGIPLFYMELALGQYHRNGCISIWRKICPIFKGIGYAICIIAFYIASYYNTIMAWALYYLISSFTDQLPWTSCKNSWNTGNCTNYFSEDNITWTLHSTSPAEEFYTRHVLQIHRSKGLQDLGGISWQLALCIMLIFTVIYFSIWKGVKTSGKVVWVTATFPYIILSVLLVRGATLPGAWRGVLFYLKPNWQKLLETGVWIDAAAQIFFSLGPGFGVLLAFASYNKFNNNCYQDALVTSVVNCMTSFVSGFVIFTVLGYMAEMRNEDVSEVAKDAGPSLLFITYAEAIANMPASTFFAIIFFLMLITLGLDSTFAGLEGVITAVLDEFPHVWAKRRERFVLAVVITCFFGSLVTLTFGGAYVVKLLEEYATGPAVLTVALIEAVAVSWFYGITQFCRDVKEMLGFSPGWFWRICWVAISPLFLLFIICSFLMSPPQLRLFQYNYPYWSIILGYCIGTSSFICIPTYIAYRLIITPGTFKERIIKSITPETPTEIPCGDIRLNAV
Experimental: Serotonin transporter binding assay. HEK-293 cells that stably express human serotonin transporters (HEK-hSERT cells) were grown at 37° C. in 5% CO2 as a monolayer in medium consisting of EMEM supplemented with 10% fetal bovine serum and G418 sulfate (500 μg/ml). To prepare membranes for radioligand binding experiments, cells were rinsed twice with phosphate-buffered saline (138 mM NaCl, 4.1 mM KCl, 5.1 mM Na2PO4, 1.5 mM KH2PO4, 11.1 mM glucose, pH 7.4). Cells were transferred from plates to polypropylene tubes (16×100 mm), centrifuged at 1,200×g for 5 min and were frozen at −80° C. until assay. Following centrifugation, pellets were resuspended by homogenization in buffer consisting of 50 mM Tris (pH 7.7 at 25° C.), 120 mM NaCl and 5 mM KCl and then centrifuged at 32,000×g for 10 min. Following centrifugation, supernatants were discarded and pellets were resuspended in buffer consisting of 50 mM Tris (pH 7.4 at 25° C.), 150 mM NaCl and 5 mM KCl. Membrane homogenates (200 μl/plate) were incubated with 1 nM [^3H]-citalopram (specific activity=85 Ci/mmol) and increasing concentrations of test compounds for 1 hr at 25° C. in a total volume of 250 μl. The assay buffer consisted of 50 mM Tris (pH 7.4 at 25° C.), 120 mM NaCl and 5 mM KCl (pH 7.4 with conc. HCl). Plates were incubated for 1 hr at 25° C., then filtered through 0.5% PEI treated Whatman GF/B filters using a Brandel cell harvester. Filters were washed three times with 3 ml of ice-cold tris wash buffer. Non-specific binding was defined with 10 μM fluoxetine. Amount of radioligand bound in the presence and absence of competitor was analyzed by plotting (−)log drug concentration versus the amount of radioligand specifically bound. The midpoint of the displacement curve (IC50, nM), signifies the potency. Ki values can be calculated using the method of Cheng and Prusoff (Cheng and Prusoff, Biochemical Pharmacology, Vol 22, pp. 3099–3108, Pergamon Press (1973)).

Row | IC50 [1] [nM] | IC50 [2] [nM] | Compound
1 | 1 to 100 | 100 to 300 | CN(C)CC(O)(COCc1cc(C(F)(F)F)cc(C(F)(F)F)c1)c1ccccc1 (centres unmarked) [Example 1, 1-(3,5-bis(trifluoromethyl)benzyloxy)-3-(dimethylamino)-2-phenylpropan-2-ol]
2 | 1 to 100 | 1 to 100 | NCC(O)(COCc1cc(C(F)(F)F)cc(C(F)(F)F)c1)c1ccccc1 (centres unmarked) [Example 2, 1-(3,5-bis(trifluoromethyl)benzyloxy)-3-amino-2-phenylpropan-2-ol]
3 | 1 to 100 | 1 to 100 | NCCC(O)(COCc1cc(C(F)(F)F)cc(C(F)(F)F)c1)c1ccccc1 (centres unmarked) [Example 4, 1-(3,5-bis(trifluoromethyl)benzyloxy)-4-amino-2-phenylbutan-2-ol]
4 | 1 to 100 | 1 to 100 | NCCC(O)(COCc1cc(C(F)(F)F)cc(C(F)(F)F)c1)c1cccc(F)c1 (centres unmarked) [Example 12, 1-(3,5-bis(trifluoromethyl)benzyloxy)-4-amino-2-(3-fluorophenyl)butan-2-ol]
5 | 1 to 100 | 1 to 100 | Cc1cc(C(O)(CCN)COCc2cc(C(F)(F)F)cc(C(F)(F)F)c2)ccc1F (centres unmarked) [Example 13, 1-(3,5-bis(trifluoromethyl)benzyloxy)-4-amino-2-(4-fluoro-3-methylphenyl)butan-2-ol]
6 | 1 to 100 | 1 to 100 | COc1cccc(C(O)(CCN)COCc2cc(C(F)(F)F)cc(C(F)(F)F)c2)c1 (centres unmarked) [Example 14, 1-(3,5-bis(trifluoromethyl)benzyloxy)-4-amino-2-(3-methoxyphenyl)butan-2-ol]
7 | 1 to 100 | 1 to 100 | Cc1cccc(C(O)(CCN)COCc2cc(C(F)(F)F)cc(C(F)(F)F)c2)c1 (centres unmarked) [Example 17, 1-(3,5-bis(trifluoromethyl)benzyloxy)-4-amino-2-m-tolylbutan-2-ol]
8 | 1 to 100 | 100 to 300 | NCCC(O)(COCc1cc(C(F)(F)F)cc(C(F)(F)F)c1)c1cc(F)cc(F)c1 (centres unmarked) [Example 19, 1-(3,5-bis(trifluoromethyl)benzyloxy)-4-amino-2-(3,5-difluorophenyl)butan-2-ol]
9 | 1 to 100 | 100 to 300 | NCCC(O)(COCc1cc(C(F)(F)F)cc(C(F)(F)F)c1)c1cc(F)cc(Cl)c1 (centres unmarked) [Example 24, 1-(3,5-bis(trifluoromethyl)benzyloxy)-4-amino-2-(3-chloro-5-fluorophenyl)butan-2-ol]
10 | 1 to 100 | 100 to 300 | COc1ccc(F)cc1C(O)(CCN)COCc1cc(C(F)(F)F)cc(C(F)(F)F)c1 (centres unmarked) [Example 25, 1-(3,5-bis(trifluoromethyl)benzyloxy)-4-amino-2-(5-fluoro-2-methoxyphenyl)butan-2-ol]

Further lines, the molecule ahead of its results:

Row | Compound | IC50 [1] [nM] | IC50 [2] [nM]
11 | NCCC(O)(COCc1cc(C(F)(F)F)cc(C(F)(F)F)c1)c1ccccc1 (racemic) [Example 7, 1-(3,5-bis(trifluoromethyl)benzyloxy)-4-amino-2-phenylbutan-2-ol] | 100 to 300 | > 300
12 | CNCC(O)(COCc1cc(C(F)(F)F)cc(C(F)(F)F)c1)c1ccccc1 (centres unmarked) [Example 3, 1-(3,5-bis(trifluoromethyl)benzyloxy)-3-(methylamino)-2-phenylpropan-2-ol] | 1 to 100 | 100 to 300
13 | CN(C)CCC(O)(COCc1cc(C(F)(F)F)cc(C(F)(F)F)c1)c1ccccc1 (centres unmarked) [Example 5, 1-(3,5-bis(trifluoromethyl)benzyloxy)-4-(dimethylamino)-2-phenylbutan-2-ol] | 1 to 100 | > 300
14 | CNCCC(O)(COCc1cc(C(F)(F)F)cc(C(F)(F)F)c1)c1ccccc1 (centres unmarked) [Example 6, 1-(3,5-bis(trifluoromethyl)benzyloxy)-4-(methylamino)-2-phenylbutan-2-ol] | 1 to 100 | 1 to 100
15 | Cc1ccc(C(O)(CCN)COCc2cc(C(F)(F)F)cc(C(F)(F)F)c2)cc1 (centres unmarked) [Example 9, 1-(3,5-bis(trifluoromethyl)benzyloxy)-4-amino-2-p-tolylbutan-2-ol] | 1 to 100 | 1 to 100
16 | NCCC(O)(COCc1cc(C(F)(F)F)cc(C(F)(F)F)c1)c1ccc(Cl)c(Cl)c1 (centres unmarked) [Example 10, 1-(3,5-bis(trifluoromethyl)benzyloxy)-4-amino-2-(3,4-dichlorophenyl)butan-2-ol] | 1 to 100 | 100 to 300
17 | NCCC(O)(COCc1cc(C(F)(F)F)cc(C(F)(F)F)c1)c1ccc2ccccc2c1 (centres unmarked) [Example 11, 1-(3,5-bis(trifluoromethyl)benzyloxy)-4-amino-2-(naphthalen-2-yl)butan-2-ol] | 100 to 300 | 1 to 100
18 | NCCC(O)(COCc1cc(C(F)(F)F)cc(C(F)(F)F)c1)c1ccc(F)c(F)c1 (centres unmarked) [Example 15, 1-(3,5-bis(trifluoromethyl)benzyloxy)-4-amino-2-(3,4-difluorophenyl)butan-2-ol] | 1 to 100 | 1 to 100
19 | CN(C)c1ccc(C(O)(CCN)COCc2cc(C(F)(F)F)cc(C(F)(F)F)c2)cc1 (centres unmarked) [Example 16, 1-(3,5-bis(trifluoromethyl)benzyloxy)-4-amino-2-(4-(dimethylamino)phenyl)butan-2-ol] | > 300 | > 300
20 | Cc1cc(C)cc(C(O)(CCN)COCc2cc(C(F)(F)F)cc(C(F)(F)F)c2)c1 (centres unmarked) [Example 18, 1-(3,5-bis(trifluoromethyl)benzyloxy)-4-amino-2-(3,5-dimethylphenyl)butan-2-ol] | 1 to 100 | 1 to 100
21 | COc1ccc(C(O)(CCN)COCc2cc(C(F)(F)F)cc(C(F)(F)F)c2)cc1 (centres unmarked) [Example 20, 1-(3,5-bis(trifluoromethyl)benzyloxy)-4-amino-2-(4-methoxyphenyl)butan-2-ol] | 100 to 300 | 1 to 100
22 | NCCC(O)(COCc1cc(C(F)(F)F)cc(C(F)(F)F)c1)c1cccc(Cl)c1 (centres unmarked) [Example 21, 1-(3,5-bis(trifluoromethyl)benzyloxy)-4-amino-2-(3-chlorophenyl)butan-2-ol] | 1 to 100 | 1 to 100
23 | Cc1ccc(C(O)(CCN)COCc2cc(C(F)(F)F)cc(C(F)(F)F)c2)c2ccccc12 (centres unmarked) [Example 22, 1-(3,5-bis(trifluoromethyl)benzyloxy)-4-amino-2-(4-methylnaphthalen-1-yl)butan-2-ol] | 100 to 300 | 1 to 100
24 | COc1ccc(C(O)(CCN)COCc2cc(C(F)(F)F)cc(C(F)(F)F)c2)cc1F (centres unmarked) [Example 23, 1-(3,5-bis(trifluoromethyl)benzyloxy)-4-amino-2-(3-fluoro-4-methoxyphenyl)butan-2-ol] | 1 to 100 | 1 to 100
25 | Cc1cccc(C(O)(CCN)COCc2cc(C(F)(F)F)cc(C(F)(F)F)c2)c1C (centres unmarked) [Example 26, 1-(3,5-bis(trifluoromethyl)benzyloxy)-4-amino-2-(2,3-dimethylphenyl)butan-2-ol] | 1 to 100 | 1 to 100
26 | COc1ccc(OC)c(C(O)(CCN)COCc2cc(C(F)(F)F)cc(C(F)(F)F)c2)c1 (centres unmarked) [Example 27, 1-(3,5-bis(trifluoromethyl)benzyloxy)-4-amino-2-(2,5-dimethoxyphenyl)butan-2-ol] | 100 to 300 | 1 to 100
27 | NCCC(O)(CNCc1cc(C(F)(F)F)cc(C(F)(F)F)c1)c1ccccc1 (centres unmarked) [Example 81] | 100 to 300 | 
